From PubChem BioAssay AID1963438 (Molecular Pharmacology Branch, DTP, NCI, 2024)

System: NCI-H510 multicellular tumor spheroid growth, % test/control
Experiment: Anticancer human tumor NCI-H510 cell line growth inhibition [Asc];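 note: spheroids exposed to agents for 7 days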;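 for viability, T/C: 100% = DMSO vehicle control wells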
Settings: for IC50: curve of first compound; for viability, T/C: stronger effect = lower value
Procedure: Multicellular complex tumor spheroid response to apoptosis pathway targeting inhibitors Alrizomadlin, Pelcitoclax, and Dasminapant in combination with a variety of drugs and investigational agents in selected tumor cell lines
The MDM2 inhibitor alrizomadlin, the Bcl-2/Bcl-xL inhibitor pelcitoclax, and the IAPs inhibitor dasminapant were evaluated both individually and in combination with standard of care and investigational anticancer small molecules within a complex spheroid model of solid tumors. . Complex spheroids include a stromal component modeled by human endothelial cells (HUVEC) and fibroblasts modeled by human mesenchymal stem cells (MSCs). The concentration ranges selected for each drug and investigational agent were based upon clinically achievable concentrations if the clinical Cmax of the agent was known.
Compounds. The drugs and investigational agents: alrizomadlin (APG-115; NSC831270), pelcitoclax (APG-1252; NSC835773), dasminapant (APG-1387;NSC834197), TAK-243 (NSC785004), copanlisib (NSC809693), olaparib (NSC753686), talazoparib (NSC767125), cobimetinib (NSC 768068), eltanexor (KPT-8602, NSC 794443), abemaciclib (NSC 768073), sotorasib (NSC818433), adagrasib (NSC 831453), MRTX-1133 (NSC 836407), Iadademestat (ORY1001, NSC 806812), and RMC-4630 (NSC839698), were obtained from the NCI Developmental Therapeutics Program Chemical Repository. The FDA-approved anticancer drug set is available from the Developmental Therapeutics Program at https://dtp.cancer.gov/organization/dscb/obtaining/available plates.htm. […] The stock solutions were prepared in dimethyl sulfoxide (DMSO, Sigma-Aldrich, St. Louis, MO, cat. D2650) at 800-fold the tested concentration and stored at -70 degrees C prior to their use. All drugs and investigational agents were tested over a range starting from a high concentration at or near the clinical Cmax and decreasing in half-log increments. If the clinical Cmax for an agent had not been determined, the highest concentration tested was 10 microM.
The patient-derived cancer (PDC) cell lines include five colon adenocarcinomas: 186277-243-T-J2-PDC, 616215-338-R-J1-PDC, 439559-082-T-J2-PDC, 463943-066-T-J2-PDC, and 519858-162-T-J1-PDC; three pancreatic carcinomas: 323965-272-R-J2-PDC, 521955-158-R6-J3-PDC, and 521955-158-R2-J5-PDC; two uterine sarcomas: 327498-152-R-J2-PDC and 993429-296-R-J1-PDC; two rhabdomyosarcomas: 755483-174-R-J1-PDC and 772245-204-R-J1-PDC; two soft tissue sarcomas: 126254-015-R-J1-PDC and 494315-158-R-J1-PDC; two malignant fibrous histiocytomas: 317291-083-R-J1-PDC and 596521-263-R-J1-PDC; two breast carcinomas: 171881-019-R-J1-PDC and 885512-296-R-J2-PDC; and one ovarian carcinoma: 6556581-035-R-J-PDC were obtained from the NCI PDMR, (https://pdmr.cancer.gov). The established cell lines HSSY-2 synovial sarcoma (RRID:CVCL 8719), SYO-1 synovial sarcoma (RRID:CVCL_7146), MPNST malignant peripheral neural sheath tumor were obtained from the Sloan Kettering Institute. The following established cell lines were purchased from the American Type Culture Collection (ATCC, Manassas, VA), Sor the received from the NCI repository:, PANC-1 pancreatic carcinoma (CRL-1469, RRID:CVCL_0480), OVCAR-5 ovarian carcinoma (RRID:CVCL_1628), OVCAR-8 ovarian carcinoma (RRID:CVCL_1629), , MCF-7 breast carcinoma (CRL-12584, RRID:CVCL_0031), MDA-MB-231 breast carcinoma (CRL-12532, RRID:CVCL_0062), NCI-H1876 small cell lung carcinoma (CRL-5902, RRID:CVCL_1503), NCI-H510A small cell lung carcinoma (HTB-184, RRID:CVCL_1565), NCI-H1417 (CRL-5869, RRID:CVCL_1469), and NCI-H196 small cell lung carcinoma (CRL-5823, RRID:CVCL_1509). Dr. Peter Houghton (Greehey Children's Cancer Research Institute, University of Texas Health Science Center, San Antonio, TX) provided Rh-18 rhabdomyosarcoma (RRID:CVCL_1659). Pooled donor human umbilical vein endothelial cells (HUVEC, Lonza, cat. CC-2519) and human mesenchymal stem cells (hMSC, Lonza, cat. PT-2501) were purchased from Lonza (Walkersville, MD).
Cell Culture. […]

[1] = second compound 0.03 µM, first compound 0.0316 µM
[2] = second compound 0.03 µM, first compound 0.1 µM
[3] = second compound 0.03 µM, first compound 0.316 µM
[4] = second compound 0.03 µM, first compound 1 µM
[5] = second compound 0.0949 µM, first compound 0.0316 µM
[6] = second compound 0.0949 µM, first compound 0.1 µM
[7] = second compound 0.0949 µM, first compound 0.316 µM
[8] = second compound 0.0949 µM, first compound 1 µM
[9] = second compound 0.3 µM, first compound 0.0316 µM
[10] = second compound 0.3 µM, first compound 0.1 µM
[11] = second compound 0.3 µM, first compound 0.316 µM
[12] = second compound 0.3 µM, first compound 1 µM
[13] = second compound 0.949 µM, first compound 0.0316 µM
[14] = second compound 0.949 µM, first compound 0.1 µM
[15] = second compound 0.949 µM, first compound 0.316 µM
[16] = second compound 0.949 µM, first compound 1 µM
[17] = second compound 3 µM, first compound 0.0316 µM
[18] = second compound 3 µM, first compound 0.1 µM
[19] = second compound 3 µM, first compound 0.316 µM
[20] = second compound 3 µM, first compound 1 µM

| IC50 (second compound 0.03 µM) [nM] | IC50 (second compound 0.0949 µM) [nM] | IC50 (second compound 0.3 µM) [nM] | IC50 (second compound 0.949 µM) [nM] | IC50 (second compound 3 µM) [nM] | SMILES | viability, T/C [1] [%] | viability, T/C [2] [%] | viability, T/C [3] [%] | viability, T/C [4] [%] | viability, T/C [5] [%] | viability, T/C [6] [%] | viability, T/C [7] [%] | viability, T/C [8] [%] | viability, T/C [9] [%] | viability, T/C [10] [%] | viability, T/C [11] [%] | viability, T/C [12] [%] | viability, T/C [13] [%] | viability, T/C [14] [%] | viability, T/C [15] [%] | also measured |
| --- | --- | --- | --- | --- | --- | --- | --- | --- | --- | --- | --- | --- | --- | --- | --- | --- | --- | --- | --- | --- | --- |
| 1330 | 2020 | 1360 | 2620 | 2550 | O=C(c1cc(Cc2n[nH]c(=O)c3ccccc23)ccc1F)N1CCN(C(=O)C2CC2)CC1 + CCN1C(C(=O)NC23CCC(C(=O)O)(CC2)CC3)C(c2cccc(Cl)c2F)C2(C(=O)Nc3cc(Cl)ccc32)C12CCCCC2 | 77.3 | 101 | 100 | 60.9 | 81.3 | 106 | 105 | 77.5 | 79.8 | 102 | 95.7 | 57 | 109 | 99.8 | 97.5 | viability, T/C (second compound 0.03 µM, first compound 3.16 µM): 18.1%; viability, T/C (second compound 0.03 µM, first compound 10 µM): 8.44%; viability, T/C (second compound 0.0949 µM, first compound 3.16 µM): 32.7%; viability, T/C (second compound 0.0949 µM, first compound 10 µM): 19.7%; viability, T/C (second compound 0.3 µM, first compound 3.16 µM): 25.5%; viability, T/C (second compound 0.3 µM, first compound 10 µM): 8.82%; viability, T/C [16]: 86.7%; viability, T/C (second compound 0.949 µM, first compound 3.16 µM): 42.5%; viability, T/C (second compound 0.949 µM, first compound 10 µM): 5.78%; viability, T/C [17]: 94.5%; viability, T/C [18]: 78.1%; viability, T/C [19]: 95.1%; viability, T/C [20]: 93.3%; viability, T/C (second compound 3 µM, first compound 3.16 µM): 40.8%; viability, T/C (second compound 3 µM, first compound 10 µM): 22.3% |
| > 1000 | > 1000 | > 1000 | > 1000 | > 1000 | O=C(c1ccc(F)c(F)c1Nc1ccc(I)cc1F)N1CC(O)([C@@H]2CCCCN2)C1 + CCN1C(C(=O)NC23CCC(C(=O)O)(CC2)CC3)C(c2cccc(Cl)c2F)C2(C(=O)Nc3cc(Cl)ccc32)C12CCCCC2 | 130 | 121 | 103 | 103 | 105 | 95.7 | 126 | 116 | 120 | 119 | 117 | 91.5 | 132 | 131 | 118 | viability, T/C (second compound 0.03 µM, first compound 0.00316 µM): 95.8%; viability, T/C (second compound 0.03 µM, first compound 0.01 µM): 126%; viability, T/C (second compound 0.0949 µM, first compound 0.00316 µM): 127%; viability, T/C (second compound 0.0949 µM, first compound 0.01 µM): 124%; viability, T/C (second compound 0.3 µM, first compound 0.00316 µM): 122%; viability, T/C (second compound 0.3 µM, first compound 0.01 µM): 111%; viability, T/C (second compound 0.949 µM, first compound 0.00316 µM): 120%; viability, T/C (second compound 0.949 µM, first compound 0.01 µM): 132%; viability, T/C [16]: 116%; viability, T/C (second compound 3 µM, first compound 0.00316 µM): 134%; viability, T/C (second compound 3 µM, first compound 0.01 µM): 160%; viability, T/C [17]: 140%; viability, T/C [18]: 114%; viability, T/C [19]: 124%; viability, T/C [20]: 127% |
